Source: patent publication US20120070411A1, “SUBSTITUTED NUCLEOTIDE ANALOGS” (Alios BioPharma, Inc., priority 2010, published 2012)
pEC50: −log10 of the molar value.

test system: Huh-7 cells containing the self-replicating, subgenomic HCV replicon; assay: HCV replicon assay (luciferase reporter, 72 h); type: cell-based; conditions: Hepatitis C virus, Huh-7, 72 h, read-out: HCV Replicon Activity (EC50)
Procedure: Huh-7 cells containing the self-replicating, subgenomic HCV replicon with a stable luciferase (LUC) reporter were cultured in Dulbecco's modified Eagle's medium (DMEM) containing 2 mM L-glutamine and supplemented with 10% heat-inactivated fetal bovine serum (FBS), 1% penicillin-streptomyocin, 1% nonessential amino acids, and 0.5 mg/ml G418.
On the first day, 5,000 HCV replicon cells were plated per well in a 96-well plate. On the following day, test compounds were solubilized in 100% DMSO to 100× the desired final testing concentration. Each compound was then serially diluted (1:3) up to 9 different concentrations. Compounds in 100% DMSO are reduced to 10% DMSO by diluting 1:10 in cell culture media. The compounds were diluted to 10% DMSO with cell culture media, which were used to dose the HCV replicon cells in 96-well format. The final DMSO concentration was 1%. The HCV replicon cells were incubated at 37° C. for 72 hours. At 72 hours, cells were processed when the cells are still subconfluent. Compounds that reduce the LUC signal are determined by Bright-Glo Luciferase Assay (Promega, Madison, Wis.). % Inhibition was determined for each compound concentration in relation to the control cells (untreated HCV replicon) to calculate the EC50.

`CCC(=O)O[C@H]1[C@@H](OC(=O)CC)[C@H](n2cnc3c(N)ncnc32)O[C@@H]1[C@H](C)OP(=O)(N[C@@H](C)C(=O)OC(C)C)Oc1cccc2ccccc12` (stereo partly drawn) [A22, 2′,3′-O-dipropionyl-5′-(S)—C-methyladenosine 5′-[1-naphthyl(isopropoxy-L-alaninyl)]phosphate] and `CCC(=O)O[C@H]1[C@@H](OC(=O)CC)[C@H](n2cnc3c(N)ncnc32)O[C@@H]1[C@H](C)OP(=O)(N[C@@H](C)C(=O)OC(C)C)Oc1ccccc1` (stereo partly drawn) [A14, 2′,3′-O-dipropionyl-5′(S)—C-methyladenosine 5′-[phenyl(isopropoxy-L-alaninyl)]phosphate] cannot be ordered by pEC50: greater than 6.00 for the first, greater than 6.00 for the second.

`COc1ccc(OP(=O)(N[C@@H](C)C(=O)OC2CCCCC2)O[C@@H](C)[C@H]2O[C@@H](n3cnc4c(N)ncnc43)[C@H](O)[C@@H]2O)cc1` (stereo partly shown) [A33] and `Cc1ccc(OP(=O)(N[C@@H](C)C(=O)OC2CCCCC2)O[C@@H](C)[C@H]2O[C@@H](n3cnc4c(N)ncnc43)[C@H](O)[C@@H]2O)cc1` (stereo partly shown) [A30] cannot be ordered by pEC50: greater than 6.00 for the first, greater than 6.00 for the second.

`CC(C)OC(=O)[C@H](C)NP(=O)(Oc1cccc2ccccc12)O[C@@H](C)[C@H]1O[C@@H](n2cnc3c(N)ncnc32)[C@@H]2OC(=O)O[C@@H]21` (stereo partly drawn) [A23, 2′,3′-O-carbonyl-5(S)—C-methyladenosine 5′-[1-naphthyl(isopropoxy-L-alaninyl)]phosphate] and `C[C@H](NP(=O)(Oc1cccc2ccccc12)O[C@@H](C)[C@H]1O[C@@H](n2cnc3c(N)ncnc32)[C@@H]2OC(=O)O[C@@H]21)C(=O)OCC(C)(C)C` (stereo partly drawn) [A4, 2′,3′-O-carbonyl-5′(S)—C-methyladenosine 5′-[1-naphthyl(neopentoxy-L-alaninyl)]phosphate] cannot be ordered by pEC50: greater than 6.00 for the first, greater than 6.00 for the second.

`CC(C)C[C@H](NP(=O)(Oc1ccccc1)O[C@@H](C)[C@H]1O[C@@H](n2cnc3c(N)ncnc32)[C@H](O)[C@@H]1O)C(=O)OC1CCCCC1` (stereo partly shown) [A40] and `CC[C@H](NP(=O)(Oc1ccccc1)O[C@@H](C)[C@H]1O[C@@H](n2cnc3c(N)ncnc32)[C@H](O)[C@@H]1O)C(=O)OC1CCCCC1` (stereo partly shown) [A34] cannot be ordered by pEC50: greater than 6.00 for the first, greater than 6.00 for the second.

`COC(=O)[C@H](C)N[P@](=O)(Oc1ccccc1)O[C@@H](C)[C@H]1O[C@@H](n2cnc3c(N)ncnc32)[C@H](O)[C@@H]1O` and `COC(=O)[C@H](C)N[P@@](=O)(Oc1ccccc1)O[C@@H](C)[C@H]1O[C@@H](n2cnc3c(N)ncnc32)[C@H](O)[C@@H]1O` cannot be ordered by pEC50: greater than 5.30 for the first, greater than 5.30 for the second.

`C[C@H](NP(=O)(Oc1cccc2ccccc12)O[C@@H](C)[C@H]1O[C@@H](n2cnc3c(N)ncnc32)[C@H](O)[C@@H]1O)C(=O)OCc1ccccc1` (stereo partly drawn) [A21, 5′(S)—C-methyladenosine 5′-[1-naphthyl(benzyloxy-L-alaninyl)]phosphate] and `CCOC(=O)[C@H](C)NP(=O)(Oc1ccccc1)O[C@@H](C)[C@H]1O[C@@H](n2cnc3c(N)ncnc32)[C@H](O)[C@@H]1O` (stereo partly shown) cannot be ordered by pEC50: greater than 6.00 for the first, greater than 4.52 for the second.

`COC(=O)[C@H](C)NP(=O)(Oc1ccccc1)OC(C)[C@H]1O[C@@H](n2ccc(N)nc2=O)[C@@H](F)[C@@H]1O` (mixture of isomers) [C9, 2′-deoxy-2′-C-β-fluoro-5′(R/S)—C-methylcytidine-5′-[phenyl-(methoxy-L-alaninyl)]phosphate] and `COC(=O)[C@H](C)NP(=O)(Oc1ccccc1)O[C@@H](C)[C@H]1O[C@@H](n2ccc(N)nc2=O)C(F)(F)[C@@H]1O` (mixture of isomers) [C5, 2′-Deoxy-2′,2′-difluoro-5′(S)—C-methylcytidine 5′-[phenyl(methoxy-L-alaninyl)]phosphate] cannot be ordered by pEC50: greater than 4.00 for the first, greater than 6.00 for the second.

`C[C@H](OP(=O)(NCC(=O)OC1CCCCC1)Oc1ccccc1)[C@H]1O[C@@H](n2cnc3c(N)ncnc32)[C@H](O)[C@@H]1O` (stereo partly shown) [A43] and `C[C@H](NP(=O)(Oc1ccccc1)O[C@@H](C)[C@H]1O[C@@H](n2cnc3c(N)ncnc32)[C@H](O)[C@@H]1O)C(=O)OC1CCCCC1` (stereo partly drawn) [A10, 5′(S)—C-methyladenosine 5′-[phenyl(cyclohexoxy-L-alaninyl)]phosphate] cannot be ordered by pEC50: greater than 6.00 for the first, greater than 6.00 for the second.

`CC(C)OC(=O)[C@H](C)NP(=O)(Oc1cccc2ccccc12)O[C@@H](C)[C@H]1O[C@@H](n2ccc(N)nc2=O)[C@H](O)[C@@H]1O` (stereo partly drawn) [C2, 5′(S)—C-methylcytidine-[naphthyl(isopropoxy-L-alaninyl)]phosphate] and `CC(C)OC(=O)[C@H](C)N[P@](=O)(Oc1cccc2ccccc12)O[C@@H](C)[C@H]1O[C@@H](n2cnc3c(=O)[nH]cnc32)[C@H](O)[C@@H]1O` (stereo in doubt) [B5, 5′(S)—C-methylinosine 5′-[1-naphthyl(isopropoxy-L-alaninyl)]phosphate] cannot be ordered by pEC50: greater than 4.00 for the first, greater than 4.00 for the second.

`COC(=O)C(C)NP(=O)(Oc1ccccc1)OC(C)[C@H]1O[C@@H](n2ccc(=O)[nH]c2=O)C(C)C1O` (mixture of isomers) [D7] and `COC(=O)[C@H](C)NP(=O)(Oc1ccccc1)O[C@@H](C)[C@H]1O[C@@H](n2ccc(=O)[nH]c2=O)[C@@H](O)[C@@H]1O` (stereo partly drawn) [D2, 5′ (S)—C-methylarabinouridine 5′-[phenyl(methoxy-L-alaninyl)]phosphate] cannot be ordered by pEC50: greater than 4.52 for the first, greater than 3.00 for the second.

`Cc1ccccc1OP(=O)(N[C@@H](C)C(=O)OC1CCCCC1)O[C@@H](C)[C@H]1O[C@@H](n2cnc3c(N)ncnc32)[C@H](O)[C@@H]1O` (stereo partly shown) [A37] and `C[C@H](NP(=O)(Oc1ccc(Cl)cc1)O[C@@H](C)[C@H]1O[C@@H](n2cnc3c(N)ncnc32)[C@H](O)[C@@H]1O)C(=O)OC1CCCCC1` (stereo partly shown) [A32] cannot be ordered by pEC50: greater than 6.00 for the first, greater than 6.00 for the second.

`COC(=O)[C@H](C)NP(=O)(Oc1ccccc1)O[C@@H](C)[C@H]1O[C@@H](n2cnc3c(N)ncnc32)[C@@H]2OC(=O)O[C@@H]21` (stereo partly drawn) [A16, 2′,3′-O-carbonyl-5′(S)—C-methyladenosine 5′-[phenyl(methoxy-L-alaninyl)]phosphate] and `C[C@H](NP(=O)(Oc1ccccc1)O[C@@H](C)[C@H]1O[C@@H](n2cnc3c(N)ncnc32)[C@@H]2OC(=O)O[C@@H]21)C(=O)OC1CCCCC1` (stereo partly drawn) [A13, 2′,3′-O-carbonyl-5′(S)—C-methyladenosine 5′-[phenyl(cyclohexoxy-L-alaninyl)]phosphate] cannot be ordered by pEC50: greater than 4.52 for the first, greater than 6.00 for the second.

`COC(=O)[C@H](C)NP(=O)(Oc1ccccc1)O[C@@H](C)[C@H]1O[C@@H](n2cnc3c(N)ncnc32)[C@H](O)[C@@H]1O` (stereo partly drawn) [A15, 5′(S)—C-methyladenosine 5′-[phenyl(methoxy-L-alaninyl)]phosphate] and `C[C@H](NP(=O)(Oc1ccccc1)O[C@@H](C)[C@H]1O[C@@H](n2cnc3c(N)ncnc32)[C@H](O)[C@@H]1O)C(=O)OCC(C)(C)C` (stereo partly drawn) [A11, 5′(S)—C-methyladenosine 5′-[phenyl(neopentoxy-L-alaninyl)]phosphate] cannot be ordered by pEC50: greater than 4.52 for the first, greater than 6.00 for the second.

`CCC(=O)O[C@H]1[C@@H](OC(=O)CC)[C@H](n2cnc3c(N)ncnc32)O[C@@H]1[C@H](C)OP(=O)(N[C@@H](C)C(=O)OCC(C)(C)C)Oc1ccccc1` (stereo partly drawn) [A17, 2′,3′-O-dipropionyl-5′(S)—C-methyladenosine 5′-[phenyl(neopentoxy-L-alaninyl)]phosphate] and `CC[C@H](OP(=O)(N[C@@H](C)C(=O)OC(C)C)Oc1ccccc1)[C@H]1O[C@@H](n2cnc3c(N)ncnc32)[C@H](O)[C@@H]1O` (stereo partly drawn) [A24, 5′(S)—C-ethyladenosine 5′-[phenyl(isopropoxy-L-alaninyl)]phosphate] cannot be ordered by pEC50: greater than 6.00 for the first, greater than 4.00 for the second.

`C[C@H](NP(=O)(Oc1ccc(F)c(Cl)c1)O[C@@H](C)[C@H]1O[C@@H](n2cnc3c(N)ncnc32)[C@H](O)[C@@H]1O)C(=O)OC1CCCCC1` (stereo partly shown) [A29] and `CCC[C@H](NP(=O)(Oc1ccccc1)O[C@@H](C)[C@H]1O[C@@H](n2cnc3c(N)ncnc32)[C@H](O)[C@@H]1O)C(=O)OC1CCCCC1` (stereo partly shown) [A38] cannot be ordered by pEC50: greater than 6.00 for the first, greater than 6.00 for the second.

`C[C@H](NP(=O)(Oc1cccc2ccccc12)O[C@@H](C)[C@H]1O[C@@H](n2cnc3c(N)ncnc32)[C@@H]2OC(=O)O[C@@H]21)C(=O)OC1CCCCC1` (stereo partly drawn) [A3, 2′,3′-O-carbonyl-5′(S)—C-methyladenosine 5′-[1-naphthyl(cyclohexoxy-L-alaninyl)]phosphate] and `COC(=O)C(C)NP(=O)(Oc1ccccc1)OC(C)[C@H]1O[C@@H](n2ccc(=O)[nH]c2=O)C(F)(F)C1O` (stereo in doubt) [D4, 2′-Deoxy-2′,2′-difluoro-5′(S)—C-methyluridine 5′-[phenyl(methoxy-L-alaninyl)]phosphate] cannot be ordered by pEC50: greater than 6.00 for the first, greater than 4.52 for the second.

same assay, conditions: Hepatitis C virus; Table 9; Huh-7 HCV replicon cells, luciferase, 72 hours; read-out: HCV Replicon Activity (EC50)

`CCC(=O)O[C@@H](C)[C@H]1O[C@@H](n2ccc(N)nc2=O)C(F)(F)[C@@H]1O` and `C[C@H](O)[C@H]1O[C@@H](n2ccc(N)nc2=O)C(F)(F)[C@@H]1O` cannot be ordered by pEC50: greater than 5.30 for the first, greater than 5.30 for the second.

`CC(O)[C@H]1O[C@@H](n2cnc3c(=O)[nH]c(N)nc32)[C@H](O)[C@@H]1O` (stereo partly shown) and `C[C@H](O)[C@H]1O[C@@H](n2ccc(N)nc2=O)[C@@H](O)[C@@H]1O` fall in the same range of pEC50: 3.70 to 4.52 for the first, 3.70 to 4.52 for the second.

`CC(O)[C@H]1O[C@@H](n2ccc(N)nc2=O)[C@@H](F)[C@@H]1O` (stereo partly shown) and `C[C@@H](O)[C@H]1O[C@@H](n2cnc3c(N)ncnc32)[C@](C)(O)[C@@H]1O` fall in the same range of pEC50: 4.52 to 5.30 for the first, 4.52 to 5.30 for the second.

`CC(OC(=O)c1ccccc1)[C@H]1O[C@@H](n2ccc(=O)[nH]c2=O)[C@](C)(OC(=O)c2ccccc2)[C@@H]1OC(=O)c1ccccc1` (stereo partly shown) gave a pEC50 of 4.52 to 5.30.

same assay, conditions: read-out: HCV Replicon Activity (EC50); Table 9; Huh-7 HCV replicon cells, luciferase, 72 hours

Work on `COC(=O)[C@@H](C)NP(=O)(Oc1ccccc1)O[C@@H](C)[C@H]1O[C@@H](n2cnc3c(N)ncnc32)[C@](C)(O)[C@@H]1O` (stereo partly shown) [drawing 364] yielded a pEC50 of 3.70 to 4.52.
